Source: patent US10329254B2, “Process for the preparation of 6-chloro-2,3,4,9-tetrahydro-1H-carbazole-1-carboxamide and intermediates thereof” (AOP ORPHAN PHARMACEUTICALS AG, priority 2011, dated 2019)

Tests used:
Sirt1 = biological target: T1, Sirt1 (Homo sapiens, UniProt Q96EB6); settings: known from WO2005026112; cited from earlier work
T1 sequence (Q96EB6 1-747): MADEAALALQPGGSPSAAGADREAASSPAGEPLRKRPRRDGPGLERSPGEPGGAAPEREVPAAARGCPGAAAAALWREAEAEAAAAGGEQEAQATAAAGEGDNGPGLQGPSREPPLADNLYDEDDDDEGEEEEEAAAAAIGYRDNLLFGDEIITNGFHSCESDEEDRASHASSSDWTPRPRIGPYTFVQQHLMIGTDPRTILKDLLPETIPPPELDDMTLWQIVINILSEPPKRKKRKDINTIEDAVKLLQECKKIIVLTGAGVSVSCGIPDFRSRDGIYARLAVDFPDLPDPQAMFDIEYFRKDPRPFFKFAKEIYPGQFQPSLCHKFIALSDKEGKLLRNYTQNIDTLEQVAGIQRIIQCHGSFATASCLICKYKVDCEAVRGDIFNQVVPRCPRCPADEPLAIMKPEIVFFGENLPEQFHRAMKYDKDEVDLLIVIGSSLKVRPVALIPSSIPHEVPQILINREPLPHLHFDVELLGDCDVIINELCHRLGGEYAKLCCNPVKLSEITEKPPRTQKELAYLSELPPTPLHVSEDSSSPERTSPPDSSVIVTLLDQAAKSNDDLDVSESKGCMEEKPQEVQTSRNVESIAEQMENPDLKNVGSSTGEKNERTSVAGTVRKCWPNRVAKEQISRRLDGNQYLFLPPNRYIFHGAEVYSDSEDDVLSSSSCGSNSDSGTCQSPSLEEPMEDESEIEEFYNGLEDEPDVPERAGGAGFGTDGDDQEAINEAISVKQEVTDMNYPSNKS

[1] = Form A stability tests under simulated drug substance storage conditions; assay type: physicochemical
Experimental: Tables 3 and 4: Form A stability data: Compound (I) in the form of Form A was packed in double bagged polythene bags (fastened with cable/security ties) and placed inside 3.6 L Curtec kegs (HDPE) to simulate typical drug substance storage conditions. Stability tests were performed at 40° C./75% RH (table 3) and 25° C./60% RH (table 4).

[2] = Hygroscopicity (absorption-desorption spectrum); assay type: physicochemical; settings: FIG. 2 / FIG. 7
Excerpt: FIG. 2: Absorption-Desorption spectrum of form A FIG. 7: Absorption-desorption spectrum of form B

NC(=O)C1CCCc2c1[nH]c1ccc(Cl)cc21 (racemic) [Compound (I), rac-6-Chloro-2,3,4,9-tetrahydro-1H-carbazole-1-carboxamide]
anti Sirt1 activity (Sirt1): anti Sirt1 activity

NC(=O)C1CCCc2c1[nH]c1ccc(Cl)cc21 (centres unmarked) [Form A, 6-Chloro-2,3,4,9-tetrahydro-1H-carbazole-1-carboxamide]
DSC (conforms to polymorph A) ([1]; 25° C./60% RH, t = 0): Conforms | Impurity content (by HPLC), no single impurity greater than 0.50% area ([1]; 25° C./60% RH, t = 0): Conforms | XRPD (conforms to polymorph) ([1]; 25° C./60% RH, t = 0): Conforms | Assay (by HPLC) ([1]; 25° C./60% RH, t = 0, on an anhydrous and solvent free basis, spec 98.0-102.0% w/w): 99.7% w/w | Water content (by KF titration) ([1]; 25° C./60% RH, t = 0, spec: not more than 0.5% w/w): <0.1% w/w | Impurity content (by HPLC), total impurities ([1]; 25° C./60% RH, t = 0, spec: not more than 2.0% area): 0.31% area | Description ([1]; 25° C./60% RH, t = 0, spec: white to off-white solid): Off-white | Assay (by HPLC) ([1]; 25° C./60% RH, t = 1 month): 99.0% w/w | Description ([1]; 25° C./60% RH, t = 1 month): Off-white | Impurity content (by HPLC), no single impurity greater than 0.50% area ([1]; 25° C./60% RH, t = 1 month): Conforms | Impurity content (by HPLC), total impurities ([1]; 25° C./60% RH, t = 1 month): 0.54% area | Water content (by KF titration) ([1]; 25° C./60% RH, t = 1 month): <0.1% w/w | Assay (by HPLC) ([1]; 25° C./60% RH, t = 3 months): 99.1% w/w | Description ([1]; 25° C./60% RH, t = 3 months): Off-white | Impurity content (by HPLC), no single impurity greater than 0.50% area ([1]; 25° C./60% RH, t = 3 months): Conforms | Impurity content (by HPLC), total impurities ([1]; 25° C./60% RH, t = 3 months): 0.22% area | Water content (by KF titration) ([1]; 25° C./60% RH, t = 3 months): 0.2% w/w | Assay (by HPLC) ([1]; 25° C./60% RH, t = 6 months): 98.7% w/w | DSC (conforms to polymorph A) ([1]; 25° C./60% RH, t = 6 months): Conforms | Description ([1]; 25° C./60% RH, t = 6 months): Off-white | Impurity content (by HPLC), no single impurity greater than 0.50% area ([1]; 25° C./60% RH, t = 6 months): Conforms | Impurity content (by HPLC), total impurities ([1]; 25° C./60% RH, t = 6 months): 0.32% area | Water content (by KF titration) ([1]; 25° C./60% RH, t = 6 months): 0.1% w/w | XRPD (conforms to polymorph) ([1]; 25° C./60% RH, t = 6 months): Conforms | Assay (by HPLC) ([1]; 25° C./60% RH, t = 9 months): 99.4% w/w | Description ([1]; 25° C./60% RH, t = 9 months): Off-white | Impurity content (by HPLC), no single impurity greater than 0.50% area ([1]; 25° C./60% RH, t = 9 months): Conforms | Impurity content (by HPLC), total impurities ([1]; 25° C./60% RH, t = 9 months): 0.29% area | Water content (by KF titration) ([1]; 25° C./60% RH, t = 9 months): <0.1% w/w | Assay (by HPLC) ([1]; 25° C./60% RH, t = 12 months): 99.0% w/w | DSC (conforms to polymorph A) ([1]; 25° C./60% RH, t = 12 months): Conforms | Description ([1]; 25° C./60% RH, t = 12 months): Off-white | Impurity content (by HPLC), no single impurity greater than 0.50% area ([1]; 25° C./60% RH, t = 12 months): Conforms | Impurity content (by HPLC), total impurities ([1]; 25° C./60% RH, t = 12 months): 0.27% area | Water content (by KF titration) ([1]; 25° C./60% RH, t = 12 months): 0.1% w/w | XRPD (conforms to polymorph) ([1]; 25° C./60% RH, t = 12 months): Conforms | Assay (by HPLC) ([1]; 25° C./60% RH, t = 18 months): 98.6% w/w | Description ([1]; 25° C./60% RH, t = 18 months): Off-white | Impurity content (by HPLC), no single impurity greater than 0.50% area ([1]; 25° C./60% RH, t = 18 months): Conforms | Impurity content (by HPLC), total impurities ([1]; 25° C./60% RH, t = 18 months): 0.26 % area | Water content (by KF titration) ([1]; 25° C./60% RH, t = 18 months): 0.1% w/w | Assay (by HPLC) ([1]; 25° C./60% RH, t = 24 months): 98.2% w/w | DSC (conforms to polymorph A) ([1]; 25° C./60% RH, t = 24 months): Conforms | Description ([1]; 25° C./60% RH, t = 24 months): Off-white | Impurity content (by HPLC), no single impurity greater than 0.50% area ([1]; 25° C./60% RH, t = 24 months): Conforms | Impurity content (by HPLC), total impurities ([1]; 25° C./60% RH, t = 24 months): 0.39% area | Water content (by KF titration) ([1]; 25° C./60% RH, t = 24 months): <0.1% w/w | XRPD (conforms to polymorph) ([1]; 25° C./60% RH, t = 24 months): Conforms | DSC (conforms to polymorph A) ([1]; 40° C./75% RH, t = 0): Conforms | Impurity content (by HPLC), no single impurity greater than 0.50% area ([1]; 40° C./75% RH, t = 0): Conforms | XRPD (conforms to polymorph A) ([1]; 40° C./75% RH, t = 0): Conforms | Assay (by HPLC) ([1]; 40° C./75% RH, t = 0, anhydrous and solvent free-basis, spec 98.0-102.0% w/w): 99.7% w/w | Water content (by KF titration) ([1]; 40° C./75% RH, t = 0, spec: not more than 0.5% w/w): <0.1% w/w | Impurity content (by HPLC), total impurities ([1]; 40° C./75% RH, t = 0, spec: not more than 2.0% area): 0.31% area | Description ([1]; 40° C./75% RH, t = 0, spec: white to off-white solid): Off-white | Description ([1]; 40° C./75% RH, t = 1 month): Off-white | Impurity content (by HPLC), no single impurity greater than 0.50% area ([1]; 40° C./75% RH, t = 1 month): Conforms | Impurity content (by HPLC), total impurities ([1]; 40° C./75% RH, t = 1 month): 0.25% area | Water content (by KF titration) ([1]; 40° C./75% RH, t = 1 month): <0.1% w/w | Assay (by HPLC) ([1]; 40° C./75% RH, t = 1 month, anhydrous and solvent free-basis): 98.9% w/w | Description ([1]; 40° C./75% RH, t = 3 months): Off-white | Impurity content (by HPLC), no single impurity greater than 0.50% area ([1]; 40° C./75% RH, t = 3 months): Conforms | Impurity content (by HPLC), total impurities ([1]; 40° C./75% RH, t = 3 months): 0.25% area | Water content (by KF titration) ([1]; 40° C./75% RH, t = 3 months): 0.4% w/w | Assay (by HPLC) ([1]; 40° C./75% RH, t = 3 months, anhydrous and solvent free-basis): 99.4% w/w | Description ([1]; 40° C./75% RH, t = 6 months): Off-white | Impurity content (by HPLC), no single impurity greater than 0.50% area ([1]; 40° C./75% RH, t = 6 months): Conforms | Impurity content (by HPLC), total impurities ([1]; 40° C./75% RH, t = 6 months): 0.33% area | Water content (by KF titration) ([1]; 40° C./75% RH, t = 6 months): 0.1% w/w | XRPD (conforms to polymorph A) ([1]; 40° C./75% RH, t = 6 months): Conforms | Assay (by HPLC) ([1]; 40° C./75% RH, t = 6 months, anhydrous and solvent free-basis): 99.0% w/w | Stability over time ([1]; Tables 3 and 4 (40° C./75% RH and 25° C./60% RH)): stable over time

NC(=O)C1CCCc2c1[nH]c1ccc(Cl)cc21 (centres unmarked) [Form B, 6-Chloro-2,3,4,9-tetrahydro-1H-carbazole-1-carboxamide]
Hygroscopicity [2]: non hygroscopic
